Test: xn = mol fraction of the nth substance listed

CC(=O)[O-].CCCC[NH2+]CCO + CCCC[n+]1ccn(C)c1.COP(=O)([O-])OC
viscosity [mPa·s], 101 kPa
Settings	x1 = 0.1014	x1 = 0.172	x1 = 0.2979	x1 = 0.4067	x1 = 0.4989	x1 = 0.6316	x1 = 0.7065	x1 = 0.8011	x1 = 0.8913	x1 = 1
278.15 K	–	–	–	–	–	–	–	–	–	6138
283.15 K	1725	1555	1328	1208	1161	1288	1457	1793	2360	3634
288.15 K	1103	997	855	781	751	825	930	1135	1475	2230
293.15 K	730	662	571	522	503	548	614	741	952	1412
298.15 K	499	454	392	360	346	375	417	499	633	921
303.15 K	351	319.8	277.3	254.3	244.8	263.1	290.6	344	431	617
308.15 K	253.2	231.1	200.9	184.2	177.2	189.1	207.4	243.2	301	423
313.15 K	186.8	170.8	148.7	136.5	131.1	138.9	151.3	175.7	214.8	297
318.15 K	140.7	128.9	112.4	103.1	98.9	104	112.6	129.5	156.5	212.7
323.15 K	108.1	99.1	86.6	79.4	76	79.4	85.4	97.2	116.1	155.3
328.15 K	84.5	77.6	67.8	62.2	59.4	61.6	65.9	74.2	87.7	115.3
333.15 K	67.08	61.68	53.98	49.43	47.16	48.5	51.57	57.6	67.3	87
338.15 K	54.05	49.76	43.58	39.88	37.96	38.75	40.98	45.33	52.4	66.7
343.15 K	44.14	40.69	35.65	32.6	30.96	31.37	33	36.18	41.36	51.9
348.15 K	36.5	33.69	29.51	26.96	25.56	25.71	26.9	29.24	33.08	40.87
353.15 K	30.53	28.22	24.71	22.56	21.33	21.31	22.18	23.9	26.78	32.6
358.15 K	25.8	23.88	20.91	19.07	17.99	17.86	18.48	19.75	21.91	26.29
363.15 K	22.02	20.4	17.86	16.27	15.31	15.1	15.55	16.48	18.11	21.43
368.15 K	18.97	17.58	15.4	14.01	13.15	12.89	13.21	13.89	15.12	17.63
373.15 K	16.47	15.28	13.38	12.15	11.38	11.09	11.3	11.8	12.72	14.64

CCCCCCCCn1cc[n+](CCCCCCCC)c1.O=S(=O)([N-]S(=O)(=O)C(F)(F)F)C(F)(F)F + O
100 kPa, x2 = 0.1246
Settings	viscosity [mPa·s]
303.15 K	92.9
308.15 K	73.29
358.15 K	13.27

CC[n+]1ccn(C)c1.[Cl-] + O
viscosity [mPa·s], 100 kPa
Settings	278.15 K	283.15 K	288.15 K	293.15 K	298.15 K	303.15 K	308.15 K	313.15 K	373 K
x1 = 9.063e-05	1.528	1.312	1.141	1.004	0.892	0.799	0.72	0.653	–
x1 = 0.0001805	1.531	1.314	1.144	1.006	0.894	0.8	0.721	0.654	–
x1 = 0.0003599	1.533	1.317	1.148	1.008	0.896	0.802	0.723	0.655	–
x1 = 0.0005394	1.538	1.321	1.15	1.011	0.898	0.804	0.724	0.656	–
x1 = 0.0007199	1.541	1.323	1.152	1.013	0.899	0.805	0.725	0.658	–
x1 = 0.0008996	1.545	1.327	1.156	1.015	0.902	0.807	0.728	0.659	–
x1 = 0.001079	1.547	1.329	1.158	1.018	0.904	0.809	0.729	0.661	–
x1 = 0.001351	1.554	1.335	1.163	1.023	0.908	0.813	0.732	0.664	–
x1 = 0.001799	1.563	1.344	1.17	1.029	0.914	0.817	0.736	0.667	–
x1 = 0.87	–	–	–	–	–	–	–	–	23
x1 = 0.9302	–	–	–	–	–	–	–	–	24
x1 = 0.9756	–	–	–	–	–	–	–	–	32
x1 = 1	–	–	–	–	–	–	–	–	36

COS(=O)(=O)[O-].Cn1cc[n+](C)c1 + CCO
Settings	viscosity [mPa·s]
328.15 K, 100 kPa, x2 = 0.945	0.96

CCCCC[N+](CCCCC)(CCCCC)CCCCC.O=[N+]([O-])[O-] + CCCCCCCCCCCCOS(=O)(=O)[O-].[Na+] + O
viscosity [mPa·s], 100 kPa
Settings	x2 = 1.81e-06, x1 = 0.0001802	x2 = 3.62e-06, x1 = 0.0001802	x2 = 5.42e-06, x1 = 0.0001802	x2 = 7.23e-06, x1 = 0.0001802	x2 = 9.04e-06, x1 = 0.0001802	x2 = 1.085e-05, x1 = 0.0001802	x2 = 1.266e-05, x1 = 0.0001802	x2 = 1.447e-05, x1 = 0.0001802	x2 = 1.627e-05, x1 = 0.0001802	x2 = 1.808e-05, x1 = 0.0001802
293.15 K	1.017	1.018	1.019	1.02	1.02	1.02	1.021	1.021	1.021	1.021
298.15 K	0.903	0.905	0.906	0.907	0.907	0.908	0.908	0.908	0.909	0.909
303.15 K	0.8	0.801	0.801	0.801	0.801	0.802	0.802	0.803	0.803	0.804
308.15 K	0.713	0.713	0.713	0.713	0.714	0.714	0.715	0.716	0.716	0.716
313.15 K	0.647	0.647	0.648	0.648	0.648	0.649	0.649	0.649	0.65	0.65
318.15 K	0.601	0.601	0.601	0.601	0.602	0.602	0.602	0.602	0.603	0.603

CC(C)C[C@H](NC(=O)CN)C(=O)O + CCCCCCCCCCCC[N+](C)(C)Cc1ccccc1.[Cl-] + O
electrical conductivity [S/m], 101 kPa
Settings	293.15 K	298.15 K	303.15 K	308.15 K	313.15 K
x1 = 0.0009002, x2 = 0	0.00295	0.00335	0.0038	0.00435	0.00495
x1 = 0.001793, x2 = 0	0.00449	0.00524	0.00608	0.00702	0.00811

CCCC[n+]1ccccc1.O=S(=O)([O-])C(F)(F)F + O
298.15 K, 101 kPa
Settings	electrical conductivity [S/m]
x1 = 0.000164	0.071
x1 = 0.0004107	0.156
x1 = 0.0005313	0.208
x1 = 0.0007077	0.277
x1 = 0.0008912	0.323
x1 = 0.001062	0.395
x1 = 0.001253	0.46
x1 = 0.001353	0.501
x1 = 0.001468	0.53
x1 = 0.001598	0.586
x1 = 0.001845	0.651
x1 = 0.001955	0.674
x1 = 0.002188	0.732
x1 = 0.002246	0.746
x1 = 0.002362	0.777
x1 = 0.002429	0.785
x1 = 0.002452	0.795
x1 = 0.002604	0.836
x1 = 0.002771	0.869
x1 = 0.00288	0.909
x1 = 0.003079	0.96

— the CheMixHub ionic liquid set
